How the values were obtained:
Bacteroides ovatus = type: in vitro ADME
Experimental: Frozen stocks of bacteria (Table 4) are plated on BHI blood agar and incubated at 37° C. under anaerobic conditions. Single colonies are inoculated into 4 mL pre-reduced GMM and incubated anaerobically at 37° C. for 24 h (Akkermansia muciniphila for 48 hours). BRV conversion assays are performed with the resulting dense cultures, as described above for bacterial communities.

BT4554 = assay: B. thetaiotaomicron loss-of-function screen, bt4554 deletion and complementation; type: in vitro ADME, Bacteroides thetaiotaomicron
Description: Two independent strategies were developed to identify the microbiome-encoded DMEs responsible for these chemical transformations. For members of the Bacteroides (the most prominent genus in the human gut microbiome in the experiments), Proteobacteria, and other genetically tractable species, Insertion Sequencing (INSeq) is used to make mapped, arrayed transposon mutant libraries as described in Goodman 2009 and Goodman 2011. From these libraries, a representative set of mutants was identified that collectively include disruptions in most non-essential genes. Each mutant was incubated with the pool of drugs metabolized by the parent species. Genes required for drug metabolism by LC-MS were identified as above.
1,352 B. thetaiotaomicron mutants were selected from an arrayed library as described in Goodman 2009 that disrupt ˜70% of its non-essential genes. Each mutant was incubated with a pool of 30 drugs metabolized by this organism. Drug levels were measured over time as above. […] FIGS. 10A-C show two examples: one of these is brivudine, an antiviral whose primary metabolite (bromovinyluracil; BVU) is dangerously toxic for patients taking 5-fluorouracil, a principal therapy for colorectal cancer. With reference to FIGS. 10A-C, transposon mutants representing disruptions in 70% of B. thetaiotaomicron (Bt) non-essential genes were screened for metabolism of 30 drugs targeted by the parent strain.
The contribution of microbial drug metabolism to serum drug and metabolite exposure was directly quantified by specifically modulating this activity in otherwise identical mice. To this end, the capacity of ten individual bacterial species was first determined, representing five major phyla that dominate the mammalian gut microbiota, for their capacity to convert BRV to BVU as illustrated in FIG. 14A. […]
Frozen stocks are re-suspended in 4 mL pre-reduced GMM and incubated anaerobically at 37° C. for 14 h. […] Substrates and reaction product are extracted and quantified by LC-MS as described below. […]

[1] = type: in vivo, C57BL/6J mice
Experimental: Germfree mice were colonized with the wildtype and mutant strains. BRV was administered.
Individually caged GF C57BL/6J mice are colonized by oral gavage with 200 μL of an overnight GMM culture of either B. thetaiotaomicron wild type or bt4554 strains to generate GN^WT or GN^MUT mice, respectively. After 4 days, bacterial loads are determined by CFU plating on BHI blood agar prior to drug treatment.
Each drug treatment is performed using 20 treated and 5 to 6 untreated animals. Both genders are equally represented in each group and evenly distributed across the different time points for sample collection. Animals (n=5 per time point and group) are given 100 mg/kg body weight of BRV or SRV as suspensions in PBS (200 μL PBS for controls) by oral gavage. One blood sample is collected from each animal at an early time point (0.5, 1, 1.5, or 2 hours after drug administration) by submandibular bleeding. At 3, 5, 7, and 9 h, mice are sacrificed and tissue samples are collected into sample tubes and snap-frozen. Fecal samples are collected before euthanization and re-suspended in PBS (1 mL) through vigorous shaking. 20 μL are then plated on BHI blood plates and incubated aerobically and anaerobically at 37° C. to check GF, GN^WT, and GN^MUT animals for contamination. Monocolonized mice are also checked for contamination by PCR using primers 7 and 8.

In the case of O=c1[nH]c(=O)n([C@H]2C[C@H](O)[C@@H](CO)O2)cc1/C=C/Br [BRV, Brivudine], the “capacity to convert BRV to BVU” value (Bacteroides ovatus) is reported as “highest metabolic activity”, the “role of bt4554 in BRV conversion to BVU” value (BT4554; targeted gene deletion and complementation at different expression levels) is reported as “necessary and sufficient” and the “conversion to BVU by mutant in BT4554” value (BT4554; transposon mutant, recapitulated by nonpolar deletion) is reported as “unable to convert”. For the same molecule, the “absorption of BRV from the lower intestine” value ([1]; GN^MUT mice excrete the drug in feces) was “poorly absorbed”, the “metabolism of cecal BRV by wildtype B. thetaiotaomicron” value ([1]; GN^WT mice) was “completely metabolizes” and the “thymine in the liver” value ([1]; GN^WT mice after BRV administration) was “thymine accumulation in the liver”. For the same molecule, the BRV serum kinetics ([1]; GN^WT versus GN^MUT mice) was “indistinguishable”.

From patent US20210183467A1, “SYSTEM AND METHOD FOR USING MICROBIOME TO DE-RISK DRUG DEVELOPMENT” (YALE UNIVERSITY, priority 2018, published 2021)
